{"source": "patent US4530998A", "about": "“2'-Deoxyoxanosine” (Zaidan Hojin Biseibutsu Kagaku KenkyuKai, priority 1983, dated 1985)", "key": {"gram-negative bacteria": {"tested_on": "gram-negative bacteria", "test": "Antibacterial (growth-inhibitory) activity, gram-negative bacteria", "format": "cell-based", "conditions": "in words", "from_the_text": "(§1) Calcd.: C:44.91, H:4.47, N:20.75, Found: C:44.78, H:4.51, N:20.89, Molecular formula: C10 H12 N4 O5 Molecular weight: 268. 2'-Deoxyoxanosine in accordance with the present invention had the following antibacterial spectrum on 0.5% peptone agar."}, "[1]": {"test": "Acute toxicity (LD50) in mice", "format": "in vivo", "conditions": "mouse, in vivo, iv"}, "mice": {"tested_on": "mice", "test": "Acute toxicity (LD50) in mice", "format": "in vivo", "conditions": "i.v., in words"}, "Shigella sonnei JS11746": {"tested_on": "Shigella sonnei JS11746", "test": "Antibacterial spectrum (MIC) on 0.5% peptone agar", "format": "cell-based", "from_the_text": "as §1\n(§2) Antibacterial spectrum of 2'-deoxyoxanosine"}, "Escherichia coli ML1628": {"tested_on": "Escherichia coli ML1628", "test": "Antibacterial spectrum (MIC) on 0.5% peptone agar", "format": "cell-based", "conditions": "Escherichia coli ML1628 (multiple resistant strain)", "from_the_text": "as §1, §2"}, "[2]": {"tested_on": "Staphylococcus aureus FDA209P", "test": "Antibacterial spectrum (MIC) on 0.5% peptone agar", "format": "cell-based", "from_the_text": "as §1, §2"}, "[3]": {"tested_on": "Shigella flexneri 4bJS11811", "test": "Antibacterial spectrum (MIC) on 0.5% peptone agar", "format": "cell-based", "from_the_text": "as §1, §2"}, "[4]": {"tested_on": "Staphylococcus aureus Simth", "test": "Antibacterial spectrum (MIC) on 0.5% peptone agar", "format": "cell-based", "from_the_text": "as §1, §2"}, "Serratia marcescens": {"tested_on": "Serratia marcescens", "test": "Antibacterial spectrum (MIC) on 0.5% peptone agar", "format": "cell-based", "from_the_text": "as §1, §2"}, "[5]": {"tested_on": "Proteus mirabilis IFM OM-9", "test": "Antibacterial spectrum (MIC) on 0.5% peptone agar", "format": "cell-based", "conditions": "IFMOM9", "from_the_text": "as §1, §2"}, "Mycobacterium 607": {"tested_on": "Mycobacterium 607", "test": "Antibacterial spectrum (MIC) on 0.5% peptone agar", "format": "cell-based", "from_the_text": "as §1, §2"}, "Proteus vulgaris OX19": {"tested_on": "Proteus vulgaris OX19", "test": "Antibacterial spectrum (MIC) on 0.5% peptone agar", "format": "cell-based", "from_the_text": "as §1, §2"}, "[6]": {"tested_on": "Bacillus subtilis NRRLB-558", "test": "Antibacterial spectrum (MIC) on 0.5% peptone agar", "format": "cell-based", "conditions": "NRRLB558", "from_the_text": "as §1, §2"}, "Proteus rettgeri GN311": {"tested_on": "Proteus rettgeri GN311", "test": "Antibacterial spectrum (MIC) on 0.5% peptone agar", "format": "cell-based", "conditions": "Providencia rettgeri", "from_the_text": "as §1, §2"}, "[7]": {"tested_on": "Klebsiella pneumoniae PCI602", "test": "Antibacterial spectrum (MIC) on 0.5% peptone agar", "format": "cell-based", "from_the_text": "as §1, §2"}, "[8]": {"tested_on": "Shigella dysenteriae JS11910", "test": "Antibacterial spectrum (MIC) on 0.5% peptone agar", "format": "cell-based", "from_the_text": "as §1, §2"}, "[9]": {"tested_on": "Salmonella enteritidis 1891", "test": "Antibacterial spectrum (MIC) on 0.5% peptone agar", "format": "cell-based", "conditions": "Salmonella enterica", "from_the_text": "as §1, §2"}, "Microcuccus flavus FDA16": {"tested_on": "Microcuccus flavus FDA16", "test": "Antibacterial spectrum (MIC) on 0.5% peptone agar", "format": "cell-based", "from_the_text": "as §1, §2"}, "Bacillus subtilis PCI219": {"tested_on": "Bacillus subtilis PCI219", "test": "Antibacterial spectrum (MIC) on 0.5% peptone agar", "format": "cell-based", "from_the_text": "as §1, §2"}, "Escherichia coli K-12": {"tested_on": "Escherichia coli K-12", "test": "Antibacterial spectrum (MIC) on 0.5% peptone agar", "format": "cell-based", "conditions": "K12", "from_the_text": "as §1, §2"}, "[10]": {"tested_on": "Corynebacterium bovis 1810", "test": "Antibacterial spectrum (MIC) on 0.5% peptone agar", "format": "cell-based", "from_the_text": "as §1, §2"}, "Proteus rettgeri GN466": {"tested_on": "Proteus rettgeri GN466", "test": "Antibacterial spectrum (MIC) on 0.5% peptone agar", "format": "cell-based", "conditions": "Providencia rettgeri", "from_the_text": "as §1, §2"}, "Candida albicans 3147": {"tested_on": "Candida albicans 3147", "test": "Antibacterial spectrum (MIC) on 0.5% peptone agar", "format": "cell-based", "from_the_text": "as §1, §2"}, "Sarcina luteus PCI1001": {"tested_on": "Sarcina luteus PCI1001", "test": "Antibacterial spectrum (MIC) on 0.5% peptone agar", "format": "cell-based", "from_the_text": "as §1, §2"}, "[11]": {"tested_on": "Pseudomonas aeruginosa A3", "test": "Antibacterial spectrum (MIC) on 0.5% peptone agar", "format": "cell-based", "from_the_text": "as §1, §2"}, "Escherichia coli NIHJ": {"tested_on": "Escherichia coli NIHJ", "test": "Antibacterial spectrum (MIC) on 0.5% peptone agar", "format": "cell-based", "from_the_text": "as §1, §2"}, "Salmonella typhi T-63": {"tested_on": "Salmonella typhi T-63", "test": "Antibacterial spectrum (MIC) on 0.5% peptone agar", "format": "cell-based", "conditions": "Salmonella enterica", "from_the_text": "as §1, §2"}, "leukemia L-1210 cells": {"tested_on": "leukemia L-1210 cells", "test": "Cytotoxicity, growth inhibition of leukemia L-1210 cells", "format": "cell-based"}, "gram-positive bacteria": {"tested_on": "gram-positive bacteria", "test": "Antibacterial (growth-inhibitory) activity, gram-positive bacteria", "format": "cell-based", "conditions": "in words", "from_the_text": "as §1"}, "[12]": {"test": "Stability under basic conditions", "format": "physicochemical", "conditions": "in words"}}}
{"smiles": "Nc1nc2c(ncn2[C@H]2C[C@H](O)[C@@H](CO)O2)c(=O)o1", "note": "[2'-deoxyoxanosine]", "values": [{"measurement": "antibacterial / growth-inhibitory activity", "setting": "gram-negative bacteria", "result": "relatively high growth-inhibitory activity"}, {"measurement": "antibacterial / growth-inhibitory activity", "setting": "gram-negative bacteria; listed as 2'-Deoxyoxanosine", "result": "excellent antibacterial activity against gram-negative bacteria"}, {"measurement": "LD50", "setting": "[1]", "result": 200, "unit": "mg/kg"}, {"measurement": "acute toxicity compared with known antibiotics similar in structure to nucleic acids", "setting": "mice", "result": "lower toxicity than that of various known antibiotics similar in structure to nucleic acids"}, {"measurement": "MIC", "setting": "Shigella sonnei JS11746", "result": 0.78, "unit": "mg/L"}, {"measurement": "MIC", "setting": "Escherichia coli ML1628", "result": 3.12, "unit": "mg/L"}, {"measurement": "MIC", "setting": "[2]", "result": "> 100", "unit": "mg/L"}, {"measurement": "MIC", "setting": "[3]", "result": 1.56, "unit": "mg/L"}, {"measurement": "MIC", "setting": "[4]", "result": "> 100", "unit": "mg/L"}, {"measurement": "MIC", "setting": "Serratia marcescens", "result": "> 100", "unit": "mg/L"}, {"measurement": "MIC", "setting": "[5]", "result": 6.25, "unit": "mg/L"}, {"measurement": "MIC", "setting": "Mycobacterium 607", "result": "> 100", "unit": "mg/L"}, {"measurement": "MIC", "setting": "Proteus vulgaris OX19", "result": "< 0.2", "unit": "mg/L"}, {"measurement": "MIC", "setting": "[6]", "result": "> 100", "unit": "mg/L"}, {"measurement": "MIC", "setting": "Proteus rettgeri GN311", "result": 12.5, "unit": "mg/L"}, {"measurement": "MIC", "setting": "[7]", "result": "> 100", "unit": "mg/L"}, {"measurement": "MIC", "setting": "[8]", "result": 1.56, "unit": "mg/L"}, {"measurement": "MIC", "setting": "[9]", "result": "> 100", "unit": "mg/L"}, {"measurement": "MIC", "setting": "Microcuccus flavus FDA16", "result": "> 100", "unit": "mg/L"}, {"measurement": "MIC", "setting": "Bacillus subtilis PCI219", "result": "> 100", "unit": "mg/L"}, {"measurement": "MIC", "setting": "Escherichia coli K-12", "result": 0.78, "unit": "mg/L"}, {"measurement": "MIC", "setting": "[10]", "result": "> 100", "unit": "mg/L"}, {"measurement": "MIC", "setting": "Proteus rettgeri GN466", "result": 25, "unit": "mg/L"}, {"measurement": "MIC", "setting": "Candida albicans 3147", "result": "> 100", "unit": "mg/L"}, {"measurement": "MIC", "setting": "Sarcina luteus PCI1001", "result": "> 100", "unit": "mg/L"}, {"measurement": "MIC", "setting": "[11]", "result": "> 100", "unit": "mg/L"}, {"measurement": "MIC", "setting": "Escherichia coli NIHJ", "result": 12.5, "unit": "mg/L"}, {"measurement": "MIC", "setting": "Salmonella typhi T-63", "result": "> 100", "unit": "mg/L"}, {"measurement": "IC50", "setting": "leukemia L-1210 cells; Mus musculus, L1210, read-out: IC50, the concentration inhibiting growth in 50% of leukemia L-1210 cells", "result": 0.15, "unit": "mg/L"}, {"measurement": "inhibition of growth of leukemia L-1210 cells", "setting": "leukemia L-1210 cells; in words", "result": "exhibited the action to inhibit the growth of leukemia L-1210 cells"}, {"measurement": "growth-inhibitory activity", "setting": "gram-positive bacteria", "result": "did not show this activity against gram-positive bacteria"}, {"measurement": "stability", "setting": "[12]", "result": "relatively unstable under basic conditions"}]}
